Experimental data reported in US11549017B2, “NIR to SWIR fluorescent compounds for imaging and detection” (PERKINELMER HEALTH SCIENCES, INC., priority 2017, dated 2023).
Several values for one entry are separate records, joined by “and”; a condition that tells them apart may be missing. Identical values can stand only once. One block for each compound: values may come before it.

Assays:
Type in all cases: physicochemical
[1] = Fluorescence emission spectra with excitation at 980 nm (InGaAs NIR detector); settings: for fluorescence emission in water: aqueous solution
Method: The emission of D2 was measured in acetonitrile (ACN), ethanol (EtOH), methanol (MeOH). Spectra were recorded on a Quantamaster 8075-21 fluorescence spectrophotometer equipped with a liquid nitrogen cooled cooled DSS-IGA020L/CUS InGaAs NIR detector with excitation at 980 nm and emission recorded from 1000 nm to 1200 nm. The emission spectra as illustrated in FIG. 2 are at equal absorbance at 980 nm for each solvent.
The fluorescence spectra for an equal absorbance ˜0.13 solution of dyes A, B, C in dichloroethane were determined by exciting at 980 nm (Horiba (Quantamaster 8075-21), nitrogen cooled InGaAs detector) and compared them with a commercially available dye, IR-26 (obtained from Exciton) D as reference. Dye B is more than 2 fold brighter than the reference IR-26 in DCE as illustrated in FIG. 3.
The fluorescence of dyes A, B and C were also determined in other solvents viz., methanol, ethanol, DMSO and water. […]

[2] = Absorbance spectra / absorbance maximum in solvents (UV/vis spectrophotometer)
From the text: Normalized spectra thus obtained are shown in FIG. 1 for each fluorochrome compound. […]

[3] = as above; remark: listed apart in the source
[4] = DCE, excitation 980 nm, equal absorbance ~0.13

SMILES: CCn1/c(=C/C=C2\CCCC(/C=C/C3=[N+](CC)c4cccc5c(S(=O)(=O)[O-])ccc3c45)=C2Cl)c2ccc(S(=O)(=O)O)c3cccc1c32 [A]
% Fluorescence Relative to C ([1]; DCE): 90.11%
Fluorescence Max [1, 4]: 1064 nm
% Fluorescence Relative to C ([1]; DMSO): 29.46%
Fluorescence Max ([1]; DMSO, excitation 980 nm): 1080 nm
% Fluorescence Relative to C ([1]; EtOH): 92.92%
Fluorescence Max ([1]; EtOH, excitation 980 nm): 1050 nm
% Fluorescence Relative to C ([1]; MeOH): 86.00%
Fluorescence Max ([1]; MeOH, excitation 980 nm): 1046 nm
fluorescence emission in water [1]: highly quenched

SMILES: O=S(=O)([O-])CCCC[N+]1=C(/C=C/C2=C(Cl)C(=C/C=c3\c4cccc5cccc(c54)n3CCCCS(=O)(=O)O)/CCC2)c2cccc3cccc1c23 [C]
% Fluorescence Relative to C ([1]; DCE): 1.00%
Fluorescence Max [1, 4]: 1062 nm
% Fluorescence Relative to C ([1]; DMSO): 1.00%
Fluorescence Max ([1]; DMSO, excitation 980 nm): 1074 nm
% Fluorescence Relative to C ([1]; EtOH): 1.00%
Fluorescence Max ([1]; EtOH, excitation 980 nm): 1046 nm
% Fluorescence Relative to C ([1]; MeOH): 1.00%
Fluorescence Max ([1]; MeOH, excitation 980 nm): 1042 nm
fluorescence emission in water [1]: highly quenched

SMILES: O=C(O)CCCn1\c(=C/C=C/C=C/C=C/C2=[N+](CCCC(=O)O)c3ccc(S(=O)(=O)[O-])c4cccc2c34)c2cccc3c(S(=O)(=O)O)ccc1c32 [D17]
Abs λmax (absorbance max, UV-Vis λmax) ([2]; methanol): ~990 nm

SMILES: O=C(O)Cn1\c(=C/C=C/C=C/C=C/C2=[N+](CC(=O)O)c3ccc(S(=O)(=O)[O-])c4cccc2c34)c2cccc3c(S(=O)(=O)O)ccc1c32 [D19]
Abs λmax (absorbance max, UV-Vis λmax) ([2]; methanol): 980 nm and ~1010 nm

SMILES: C[N+]1=C(/C=C/C=C/C=C/C=c2/c3cccc4c(S(=O)(=O)O)ccc(c43)n2CCCC(=O)O)c2cccc3c(S(=O)(=O)[O-])ccc1c23 [D20]
Abs λmax (absorbance max, UV-Vis λmax) ([2]; methanol): ~980 nm

SMILES: CCn1\c(=C/C=C(/C=C/C2=[N+](CC)c3ccc(S(=O)(=O)O)c4cccc2c34)c2ccc(C(=O)O)cn2)c2cccc3c(S(=O)(=O)O)ccc1c32 [D71]
Abs λmax (absorbance max, UV-Vis λmax) ([2]; methanol): 851 nm

SMILES: Cn1/c(=C\C=C2/CCCC(/C=C/C3=[N+](C)c4ccc(S(=O)(=O)[O-])c5cccc3c45)=C2Cl)c2cccc3c(S(=O)(=O)O)ccc1c32 [D82]
Abs λmax (absorbance max, UV-Vis λmax) ([2]; methanol): ~1020 nm

SMILES: CC1(C)C(/C=C/C=C/C=C/C=c2/c3cccc4c(S(=O)(=O)O)ccc(c43)n2CCCC(=O)O)=[N+](CCCS(=O)(=O)[O-])c2ccc3c(S(=O)(=O)O)cc(S(=O)(=O)O)cc3c21 [D86]
Abs λmax (absorbance max, UV-Vis λmax) ([2]; methanol): ~890 nm

SMILES: ClC1=C(/C=C/c2cc(-c3ccccc3)[s+]c3ccccc23)CCC/C1=C\C=C1/C=C(c2ccccc2)Sc2ccccc21.[O-][Cl+3]([O-])([O-])[O-] [D (IR-26), IR-26, reference compound]
% Fluorescence Relative to C ([1]; DCE): 58.89%
Fluorescence Max [1, 4]: 1118 nm

Other lines, results leading:

% Fluorescence Relative to C ([1]; DCE): 130.82%
Fluorescence Max [1, 4]: 1080 nm
% Fluorescence Relative to C ([1]; DMSO): 80.53%
Fluorescence Max ([1]; DMSO, excitation 980 nm): 1092 nm
% Fluorescence Relative to C ([1]; EtOH): 76.31%
Fluorescence Max ([1]; EtOH, excitation 980 nm): 1062 nm
% Fluorescence Relative to C ([1]; MeOH): 94.80%
Fluorescence Max ([1]; MeOH, excitation 980 nm): 1056 nm
fluorescence emission in water [1]: highly quenched
brightness relative to the reference IR-26 ([1]; in DCE, excitation 980 nm, equal absorbance): more than 2 fold
SMILES: CCn1/c(=C/C=C2C(Cl)=C(/C=C/C3=[N+](CC)c4cccc5c(S(=O)(=O)[O-])ccc3c45)C3CCC/2C3)c2ccc(S(=O)(=O)O)c3cccc1c32 (centres unmarked) [B]

Abs λmax (absorbance max, UV-Vis λmax) ([2]; methanol): ~980 nm
SMILES: O=C(O)CCCn1\c(=C/C=C/C=C/C=C/C2=[N+](CCCS(=O)(=O)O)c3ccc(S(=O)(=O)[O-])c4cccc2c34)c2cccc3c(S(=O)(=O)O)ccc1c32 [D13]

Abs λmax (absorbance max, UV-Vis λmax) ([2]; methanol): ~1030 nm
SMILES: O=S(=O)([O-])CCC[N+]1=C(/C=C/C2=C(Cl)C(=C/C=c3/c4cccc5c(S(=O)(=O)O)ccc(c54)n3CCCS(=O)(=O)O)/C3CCC2C3)c2cccc3c(S(=O)(=O)O)ccc1c23 (centres unmarked) [D15]

Abs λmax (absorbance max, UV-Vis λmax) ([2]; methanol): 970 nm and ~990 nm
SMILES: O=C(O)C[N+]1=C(/C=C/C=C/C=C/C=c2/c3cccc4c(S(=O)(=O)O)ccc(c43)n2CCCS(=O)(=O)O)c2cccc3c(S(=O)(=O)[O-])ccc1c23 [D18]

Abs λmax (absorbance max, UV-Vis λmax) ([2]; methanol): ~1030 nm
Abs λmax ([2]; methanol, unit not given): 1026
SMILES: O=S(=O)([O-])CCC[N+]1=C(/C=C/C2=C(Cl)C(=C/C=c3/c4cccc5cccc(c54)n3CCCS(=O)(=O)O)/C3CCC2C3)c2cccc3cccc1c23 (centres unmarked) [D72]

Abs λmax (absorbance max, UV-Vis λmax) ([2]; methanol): 980 nm
SMILES: O=C(O)CCCn1/c(=C/C=C/C=C/C=C/C2=[N+](CCCC(=O)O)c3ccc(S(=O)(=O)[O-])c4cccc2c34)c2cccc3c(S(=O)(=O)O)ccc1c32 [D74]

Abs λmax (absorbance max, UV-Vis λmax) ([2]; methanol): 990 nm
SMILES: CCOC(=O)C1(C(=O)OCC)CC(/C=C/C2=[N+](CCCS(=O)(=O)O)c3ccc(S(=O)(=O)[O-])c4cccc2c34)=CC(=C/C=c2\c3cccc4c(S(=O)(=O)O)ccc(c43)n2CCCS(=O)(=O)O)/C1 [D75]

Abs λmax (absorbance max, UV-Vis λmax) ([2]; methanol): ~1026 nm
SMILES: Cn1/c(=C\C=C2C(Cl)=C(/C=C/C3=[N+](C)c4ccc(S(=O)(=O)[O-])c5cccc3c45)C3CCC\2C3)c2cccc3c(S(=O)(=O)O)ccc1c32 (centres unmarked) [D81]

Abs λmax (absorbance max, UV-Vis λmax) ([2]; methanol): ~1020 nm
SMILES: O=S(=O)([O-])CCC[N+]1=C(/C=C/C2=C(Cl)C(=C/C=c3/c4cccc5cccc(c54)n3CCCS(=O)(=O)O)/CCC2)c2cccc3cccc1c23 [D84]

Abs λmax (absorbance max, UV-Vis λmax) ([2]; methanol): ~1030 nm
SMILES: O=S(=O)(O)CCCn1/c(=C\C=C2/CCCC(/C=C/C3=[N+](CCCS(=O)(=O)O)c4ccc(S(=O)(=O)[O-])c5cccc3c45)=C2Cl)c2cccc3c(S(=O)(=O)O)ccc1c32 [D85]

Absorption max ([3]; in Acetonitrile): 1019 nm
Absorption max ([3]; in Chloroform): 820 nm
Absorption max ([3]; in DMSO): 1069 nm and 1065 nm
Absorption max ([3]; in Dichloromethane): 810 nm
Absorption max ([3]; in Ethanol): 1032 nm
Absorption max ([2]; in Methanol): 1022 nm
Absorption max ([2]; in Water): 829 nm
SMILES: CCn1/c(=C\C=C2/CCCC(/C=C/C3=[N+](CC)c4ccc(S(=O)(=O)O)c5cccc3c45)=C2Cl)c2cccc3c(S(=O)(=O)O)ccc1c32 [compound 26]
